Laboratory results from patent US20180327367A1, “MACROCYCLIC BROAD SPECTRUM ANTIBIOTICS” (priority 2015, published 2018).
In brackets after ≈: the same amount, converted by molar mass. Like-named read-outs stand apart in the source and are kept apart here.

How the values were obtained:
[1] = target: T1, SpsB (Staphylococcus aureus signal peptidase) (Staphylococcus aureus, UniProt P0A070); test: cell-based; type: biochemical; conditions: SpsB IC50, whole-cell S. aureus (USA300 background, overexpressing SpsB) as SpsB source; fluorogenic peptide substrate, kinetic read 30 min
T1 construct: This assay uses a suspension of Staphylococcus aureus cells as a source of SpsB instead of recombinant SpsB protein; endogenous in cells; host or cells: S. aureus, USA300 background, overexpressing SpsB (whole-cell suspension from frozen pellets)
T1 sequence (P0A070 whole entry): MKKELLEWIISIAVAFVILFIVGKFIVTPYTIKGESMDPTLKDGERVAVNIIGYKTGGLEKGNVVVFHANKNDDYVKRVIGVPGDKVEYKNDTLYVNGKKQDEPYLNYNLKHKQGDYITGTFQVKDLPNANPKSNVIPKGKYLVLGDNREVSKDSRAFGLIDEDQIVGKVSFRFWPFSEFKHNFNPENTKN
Outline: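 Whole S. aureus cells (USA300, overexpressing SpsB) in PBS with MgCl2, CaCl2 and 0.1% Tween-80 served as enzyme source, mixed with 20 μM stock of (Dabcyl)βAla-KPAKAAE(Edans) substrate before use. Fluorescence (ex 340/em 490 nm) read kinetically over 30 min. IC50 from reaction rate versus 11-point inhibitor concentration.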

[2] = system: Methicillin Resistant Staphylococcus aureus strain USA 300, NRS384; test: Minimum inhibitory concentration, broth micro-dilution (CLSI), S. aureus; type: cell-based; conditions: Staphylococcus aureus, MRSA / NRS 384 / USA300, 22 h, 35° C., 22 hours
Outline: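 Colonies grown 20 hours at 35° C were suspended in cation-adjusted Mueller Hinton Broth with 0.002% Tween-80. Cells were then added to 2-fold compound dilutions starting at 4 or 0.5 μg/mL, at OD600 0.0005.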

[3] = system: Escherichia coli ATCC 25922; test: Minimum inhibitory concentration, broth micro-dilution (CLSI), E. coli; type: cell-based; conditions: Escherichia coli, ATCC25922, 22 h, 35° C., 22 hours
[4] = system: Escherichia coli MC4100 harboring the IMP4213 (E. coli IMP); test: microbe, parasite or virus in culture; type: cell-based; conditions: Escherichia coli, 22 h, read-out: MIC (μg/mL) E. coli IMP, E. coli MC4100 IMP4213, increased outer-membrane permeability; 35° C., 22 hours
Outline: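 Broth micro-dilution per CLSI in cation-adjusted Mueller Hinton Broth with 0.002% Tween-80; E. coli MC4100 carries IMP4213, raising outer-membrane permeability. Compounds tested as 2-fold serial dilutions (10 concentrations) from 4 μg/mL (protocol 2) or 0.5 μg/mL (protocol 3); inoculum OD600 0.0005, 35° C for 22 hours.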

[5] = MRSA USA 300 NRS384, read-out: MIC (μg/mL) S. aureus
[6] = E. coli ATCC 25922, read-out: MIC (μg/mL) E. coli

CCCCCCCCc1ccc(C(=O)N[C@@H](CCN)C(=O)N(C)[C@@H]2C(=O)N[C@@H](C)C(=O)N[C@H](C(=O)NCC#N)Cc3ccc(OCCN)c(c3)-c3cc2ccc3OCCN)c(/C=C/C(N)=O)c1 [Compound 450]
IC50 [1]: 0.66 nM | MIC [2, 5]: 0.13 µg/mL (≈ 0.141 µM) | MIC [3, 6]: 16 µg/mL (≈ 17.3 µM) | MIC [4]: 0.063 µg/mL (≈ 0.0682 µM)

CCCCCCCCCCCC(=O)N[C@@H](CC#N)C(=O)N(C)[C@@H]1C(=O)N[C@@H](C)C(=O)N[C@H](C(=O)NCC#N)Cc2ccc(OCCN)c(c2)-c2cc1ccc2OCCN [Compound 453]
IC50 [1]: 2.3 nM | MIC ([2]; read-out: MIC (μg/mL) S. aureus, MRSA USA 300 NRS384): 0.13 µg/mL (≈ 0.159 µM) | MIC ([3]; read-out: MIC (μg/mL) E. coli, E. coli ATCC 25922): 16 µg/mL (≈ 19.6 µM) | MIC [4]: 0.13 µg/mL (≈ 0.159 µM)

CCCCCCCCCCCC(=O)N[C@@H](CCn1cncn1)C(=O)N(C)[C@@H]1C(=O)N[C@@H](C)C(=O)N[C@H](C(=O)NCC#N)Cc2ccc(OCCN)c(c2)-c2cc1ccc2OCCN [Compound 454]
IC50 [1]: 1.8 nM | MIC [2, 5]: 0.13 µg/mL (≈ 0.149 µM) | MIC [3, 6]: 32 µg/mL (≈ 36.7 µM) | MIC [4]: 0.13 µg/mL (≈ 0.149 µM)

CCCCCCCCc1ccc(C(=O)N[C@@H](CCCN)C(=O)N(C)[C@@H]2C(=O)N[C@@H](C)C(=O)N[C@H](C(=O)NCC#N)Cc3ccc(OCCCN)c(c3)-c3cc2ccc3OCCCN)cc1 [Compound 457]
IC50 [1]: 0.64 nM | MIC [2, 5]: 0.047 µg/mL (≈ 0.0524 µM) | MIC [3, 6]: 0.25 µg/mL (≈ 0.279 µM) | MIC [4]: 0.0078 µg/mL (≈ 0.0087 µM)

CCCCCCCCCCCCCC(=O)N(C)[C@@H]1C(=O)N[C@@H](C)C(=O)N[C@H](C(=O)NCC#N)Cc2ccc(OCCN(C)C)c(c2)-c2cc1ccc2OCCN(C)C [Compound 460]
IC50 [1]: 14 nM | MIC [2, 5]: 2 µg/mL (≈ 2.49 µM) | MIC [3, 6]: 16 µg/mL (≈ 19.9 µM) | MIC [4]: 1.5 µg/mL (≈ 1.87 µM)

C[C@@H]1NC(=O)[C@@H](N(C)C(=O)CCNCc2ccc(-c3ccc(Cl)cc3)cc2)c2ccc(OCCN)c(c2)-c2cc(ccc2OCCN)C[C@@H](C(=O)NCC#N)NC1=O [Compound 461]
IC50 [1]: 0.74 nM | MIC [2, 5]: 0.063 µg/mL (≈ 0.0778 µM) | MIC [3, 6]: > 64 µg/mL | MIC [4]: 4 µg/mL (≈ 4.94 µM)

CCCCCc1ccc(CNCCC(=O)N(C)[C@@H]2C(=O)N[C@@H](C)C(=O)N[C@H](C(=O)NCC#N)Cc3ccc(OCCN)c(c3)-c3cc2ccc3OCCN)c(C)c1 [Compound 462]
IC50 [1]: 0.81 nM | MIC [2, 5]: 0.094 µg/mL (≈ 0.12 µM) | MIC [3, 6]: 64 µg/mL (≈ 81.7 µM) | MIC [4]: 4 µg/mL (≈ 5.11 µM)

CCCCCCCCCC(=O)NCC(=O)N(C)[C@@H]1C(=O)N[C@@H](C)C(=O)N[C@H](C(=O)NCC#N)Cc2ccc(OCCN)c(c2)-c2cc1ccc2OCCN [Compound 463]
IC50 [1]: 3.2 nM | MIC [2, 5]: 0.5 µg/mL (≈ 0.668 µM) | MIC [3, 6]: > 64 µg/mL | MIC [4]: 0.5 µg/mL (≈ 0.668 µM)

CCCCCCCCCC(=O)NCCC(=O)N(C)[C@@H]1C(=O)N[C@@H](C)C(=O)N[C@H](C(=O)NCC#N)Cc2ccc(OCCN)c(c2)-c2cc1ccc2OCCN [Compound 464]
IC50 [1]: 6 nM | MIC [2, 5]: 1 µg/mL (≈ 1.31 µM) | MIC [3, 6]: > 64 µg/mL | MIC [4]: > 4 µg/mL

CCCCCCCCCCCCCC(=O)N[C@@H](CC)C(=O)N(C)[C@@H]1C(=O)N[C@@H](C)C(=O)N[C@H](C(=O)NCC#N)Cc2ccc(OCCN)c(c2)-c2cc1ccc2OCCN [Compound 465]
IC50 [1]: 1.6 nM | MIC [2, 5]: 0.094 µg/mL (≈ 0.113 µM) | MIC [3, 6]: 4 µg/mL (≈ 4.8 µM) | MIC [4]: 0.19 µg/mL (≈ 0.228 µM)

CCCCCCCCCCCC(=O)N[C@@H](CCCCN)C(=O)N(C)[C@@H]1C(=O)N[C@@H](C)C(=O)N[C@H](C(=O)NCC#N)Cc2ccc(O)c(c2)-c2cc1ccc2O [Compound 468]
IC50 [1]: 3.4 nM | MIC [2, 5]: 0.19 µg/mL (≈ 0.249 µM) | MIC [3, 6]: 64 µg/mL (≈ 84 µM) | MIC [4]: 0.5 µg/mL (≈ 0.656 µM)

CCCCCCCCCCNCCC(=O)N[C@@H](CO)C(=O)N(C)[C@@H]1C(=O)N[C@@H](C)C(=O)N[C@H](C(=O)NCC#N)Cc2ccc(O)c(c2)-c2cc1ccc2O [Compound 469]
IC50 [1]: 5 nM | MIC [2, 5]: 4 µg/mL (≈ 5.33 µM) | MIC [3, 6]: > 64 µg/mL | MIC [4]: > 4 µg/mL

CCCCCCCCc1ccc(C(=O)N[C@@H](CCCCN)C(=O)N(C)[C@@H]2C(=O)N[C@@H](C)C(=O)N[C@H](C(=O)NCC#N)Cc3ccc(OC)c(c3)-c3cc2ccc3OC)cc1 [Compound 470]
IC50 [1]: 24 nM | MIC [2, 5]: 3 µg/mL (≈ 3.64 µM) | MIC [3, 6]: > 64 µg/mL | MIC [4]: 0.5 µg/mL (≈ 0.607 µM)

CCCCCCCCc1ccc(C(=O)N[C@@H](CCCN)C(=O)N(C)[C@@H]2C(=O)N[C@@H](C)C(=O)N[C@H](C(=O)NCC#N)Cc3ccc(OC)c(c3)-c3cc2ccc3OC)c(OC)c1 [Compound 473]
IC50 [1]: 39 nM | MIC [2, 5]: 1.5 µg/mL (≈ 1.79 µM) | MIC [3, 6]: > 64 µg/mL | MIC [4]: 0.25 µg/mL (≈ 0.298 µM)

CCCCCCCCCCCCCC(=O)N(C)[C@@H]1C(=O)N[C@@H](C)C(=O)N[C@H](C(=O)NCC#N)Cc2ccc(OCCN)c(c2)-c2cc1ccc2OCCN [Compound 475]
IC50 [1]: 18 nM | MIC [2, 5]: 1 µg/mL (≈ 1.34 µM) | MIC [3, 6]: 6 µg/mL (≈ 8.02 µM) | MIC [4]: 0.5 µg/mL (≈ 0.668 µM)
